Several values for one entry are separate records, joined by “and”; a condition that tells them apart may be missing. Identical values can stand only once. Entries after “also recorded” stand apart in the source; their conditions may differ.
Legend:
[1] = test system: Arabidopsis WT seedlings on solid MS media; assay: Stomatal development bioassay on solid media; format: in vivo; details: for MI (%) meristemoid index / SI (%) stomatal index: solid culture, cotyledon abaxial epidermis, individual seedlings
Procedure: Arabidopsis accession Columbia (Col-0) was used as wild-type. […] Their genotype and transcript reduction were confirmed. The presence of transgenes/mutant alleles were confirmed by genotyping. For liquid culture with Stomidazolone (AYSJ929, compound 3), the analogs (AYSJ1059 (compound 5) and AYSJ1061 (compound 6)), degraded compound lzx103 (compound 4), and SIM3* (compound 7), all compounds were dissolved in dimethyl sulfoxide (DMSO, Molecular biology grade, Fujifilm Wako, Japan 046-21981), Col-0 seeds were sown in 96-well plates (TL5003; True Line) containing 95 μL of 1/2 MS media containing 0.5% sucrose with rotary shaking at 140 rpm under continuous light at 22 °C. Five μL of compounds were dissolved in DMSO at 10 mM and diluted with liquid 1/2 MS media to 1 mM and added on 1-day-old seedlings (final concentration, 50 μM). Seedlings were incubated for 8 days, and at day 9 seedling abaxial cotyledons were observed through confocal microscopy. For liquid culture of scrm-D_S343 and scrm-D_S423, 1/2 MS liquid media without sucrose was used. For the solid culture, 0, 20, 50 or 100 μM Stomidazolone were solidified with low-melting agarose (5805S, PrimeGelTM Agarose LMT 1-20 K, TAKARA Bio). Briefly, 1/2 MS salt, 0.5% sucrose, and 0.8% low melting agarose were mixed in water and autoclaved. After cooling the medium at around 30 °C, Stomidazolone (500x, dissolved in DMSO) was added and poured into 90 mm petri dishes (Asnol Petri Dish JP φ90 x 15 mm, 3-1491-01, AS ONE). Col-0 seeds were sown on Stomidazolone-containing 1/2 MS agarose media and grown under continuous light for 9 days.
For quantitative analysis of the abaxial leaf epidermis, confocal images were taken on the days after germination as indicated in the Figure legends. Preparation of images was done as described previously[32],[70]. For counting epidermal cell types, stomatal density, stomatal precursor cells (meristemoids), total stomata-lineage cells (stomata and meristemoids) were calculated by counting cell types in an area of 0.4 mm^2 (0.63 mm × 0.63 mm) and plotted as per mm^2. A series of Z-stack confocal images was obtained to obtain images covering the epidermis and capturing GFP/YFP signal from the reporter lines. The area and the number of epidermal cells were quantified by using FIJI-ImageJ. Statistical analyses were performed using R ver. 4.0.2. Sample sizes (n) are indicated and defined in each legend. For the multiple sample comparison, 1-way ANOVA was performed followed by a post hoc Tukey HSD test. For the two-sample comparison, Student’s T-test was performed. Graphs were generated using R ggplot2 package. For all boxplots, each box represents IQR (interquartile range), in which top, middle line, and bottom indicating 75, 50, and 25 percentiles, respectively, and the bar representing maximum to minimal values. Each magenta dot represents jittered individual data point. The datapoints that go beyond the bar are outliers, which are indicated as black dots. If the data point is greater than Q3 + 1.5*IQR (above the third quartile is greater than 1.5 times of the interquartile range) or less than Q1 − 1.5*IQR, that data point is classified as outlier. The color of Boxplot graph was based on ColorBrewer.org. The value of n, the number of each experiment or samples, the means of error bars, and how statistical significance was defined are indicated in a relevant figure legend. See Source Data for quantitative data underlying each figure.

[2] = Stability with acid or base in organic solvent; format: physicochemical; details: 1,2-dichloroethane, 40 °C, 3 h
Description: To examine the stability of Stomidazolone and identify any degraded products (if unstable), we treated Stomidazolone with an acid or a base. […] The major degraded product under basic conditions was isolated with gel-permeation chromatography (GPC) in 48% yield. The product, which we designated as lzx103 (compound 4), was identified as (phenylsulfonyl)benzimidamide[39] through ^1H and ^13C NMR analyses (Supplementary Fig. 3a, Supplementary Data 1). […]
show any biological activity on stomatal development (see Revised Fig. S3), thus ruling out the possibility that the inhibition of stomatal differentiation is attributable to the degradation product rather than Stomidzaolone itself. The yield of Izx103 was determined through isolation. Please see the schematics below (presented as Fig. S3). These new findings are described in detail in our Revised Results section (see Page 6 "Stability of […]
with CH COOH (3.1 equiv.) HN […]
with NaOH (3.1 equiv.) NH2 […]
The authors should also provide a better 13C NMR spectrum of the compound in the SI, the current copy features rather weak signal intensities and some signals can only be suspected.
We re-synthesized Stomidazolone and substituted with a better 13C NMR spectrum of Stomidazolone in our revised Document S1. Thank you.
Finally, it should be mentioned in the MS right from the beginning that the compound is a racemic mixture (see also point 2 for this).
We sincerely appreciate Reviewer 2 for raising an important point. Please see our […]
observed effects are caused by Stomidazolone-mediated modulation of MUTE function. The authors use SIM1 during the plant assays which is however not an optimal control as it is not […]
in the biochemical assays, while active compounds are in contrast active in both assay types.
An almost optimal control for these phenotypic and biochemical assays in my view are the two enantiomers of Stomidazolone. […]

For `O=C1C(c2ccccc2)=NC(NS(=O)(=O)c2ccccc2)(c2ccccc2)N1S(=O)(=O)c1ccccc1` (stereo not drawn) [Stomidazolone], which “MI (%) meristemoid index” value ([1]; 20 uM) is on record?
Its value is 2.39% and 0% and 2.612% and 2.336% and 2.778% and 1.339% and 0.4219% and 0.7905%.

And the “SI (%) stomatal index” value ([1]; 20 uM)?
The value was 22.3108% and 29.661% and 27.2388% and 24.7664% and 32.1429% and 24.5536% and 35.443% and 19.7628%.

What about the “MI (%) meristemoid index” value ([1]; 50 uM) of the same compound?
The value was 0% and 2.954% and 0.8658% and 1.852% and 0.4878% and 0.5208% and 2.991%.

And the “SI (%) stomatal index” value ([1]; 50 uM)?
The value was 27.027% and 21.097% and 20.3463% and 25.9259% and 27.9412% and 25.8537% and 27.6042% and 20.9402%.

And the “MI (%) meristemoid index” value ([1]; 100 uM)?
The value was 2.4% and 0.7812% and 3.364% and 2.326% and 0.4717% and 8.069% and 4.2623% and 3.509%.

And the “SI (%) stomatal index” value ([1]; 100 uM)?
Its value is 20.4% and 25% and 12.844% and 16.2791% and 24.0566% and 14.9856% and 17.377% and 15.4386%.

And the “effect on seedling growth” value ([1]; solid media, 100 μM (Supplementary Fig. 2d))?
Its value is “subtle growth retardation”.

What about the “effect on stomatal differentiation (in words)” value ([1]; solid media, 20, 50, 100 μM (Supplementary Fig. 2a-c)) of the same compound?
The value was “inhibited stomatal differentiation in a dose-dependent manner”.

And the “effect on seedling morphology / growth” value ([1]; solid media, 20 and 50 μM (Supplementary Fig. 2d))?
The value was “does not impact; also recorded: does not affect growth”.

And the “stability under acidic conditions” value ([2]; 3 equiv. of acetic acid)?
The value was “stable”.

What about the “stability under basic conditions” value ([2]; 3 equiv. of sodium hydroxide) of the same compound?
Its value is “completely degraded”.

And the “recovered by 1H NMR analysis” value ([2]; CH3COOH (3.1 equiv.))?
The value was 93%.

Source: PMC11500415, “Chemical inhibition of stomatal differentiation by perturbation of the master-regulatory bHLH heterodimer via an ACT-Like domain” (Nature Communications, 2024)
